Results on 32 compounds are retold here after US6833378B2, “Corticotropin releasing factor antagonists” (Pfizer Inc, priority 2000, dated 2004).

Structures are written as SMILES. Counter-ions that a name gives are not always drawn.

As for `CCC(CC)Oc1cc(C)nc(Nc2c(C)cc(C)cc2C)c1CN(C)C.Cl`, the melting point was 85 to 88 °C. To `CCC(CC)Oc1cc(C)nc(Nc2c(C)cc(C)cc2C)c1C(N)=O` (as salt: HCl) [Example 78, 4-(1-Ethyl-propoxy)-6-methyl-2-(2,4,6-trimethyl-phenylamino)-nicotinamide] belongs 185 to 187 °C.

In the case of `CCC(CC)Oc1cc(C)nc(Nc2c(C)cc(C)cc2C)c1C(=O)N(C)C` (as salt: HCl) [Example 80, 4-(1-Ethyl-propoxy)-6,N,N-trimethyl-2-(2,4,6-trimethyl-phenylamino)-nicotinamide], the melting point was 197 to 200 °C. To `CCC(COC)Nc1cc(C)nc(Oc2c(C=O)cccc2OC)c1[N+](=O)[O-]` (centres unmarked) [Example 1, 3-Methoxy-2-[4-(1-methoxymethyl-propylamino)-6-methyl-3-nitro-pyridin-2-yloxy]-benzaldehyde] belongs 126.5 to 130.5 °C.

With `CCC(COC)Nc1cc(C)nc(Oc2c(OC)cc(OC)cc2OC)c1[N+](=O)[O-]` (centres unmarked) [Example 1, (1-Methoxymethyl-propyl)-[6-methyl-3-nitro-2-(2,4,6-trimethoxy-phenoxy)-pyridin-4-yl]-amine], the melting point lay within 126.8 to 129.5 °C. The value for `CCC(COC)Nc1cc(C)nc(Oc2ccc(OC(F)(F)F)cc2)c1[N+](=O)[O-]` (centres unmarked) [Example 1, (1-Methoxymethyl-propyl)-[6-methyl-3-nitro-2-(4-trifluoromethoxy-phenoxy)-pyridin-4-yl]-amine] was 75 to 76 °C; that for `CCC(CC)Nc1cc(C)nc(Oc2c(C)cc(C)cc2C)c1NC(=O)C(C)Cl` (centres unmarked) [Example 2, 2-Chloro-N-[4-(1-ethyl-propylamino)-6-methyl-2-(2,4,6-trimethyl-phenoxy)-pyridin-3-yl]-propionamide] was 170 to 172 °C. The value for `CCC(CC)Nc1cc(C)nc(Oc2c(C)cc(C)cc2C)c1NC(=O)CCCl` [Example 2, 3-Chloro-N-[4-(1-ethyl-propylamino)-6-methyl-2-(2,4,6-trimethyl-phenoxy)-pyridin-3-yl]-propionamide] was 183 to 185 °C; that for `CC[C@H]1COC(=O)N1c1cc(C)nc(Oc2c(C)cc(Cl)cc2C)c1C(=O)OC` [Example 18, 2-(4-Chloro-2,6-dimethyl-phenoxy)-4-(S)-(4-ethyl-2-oxo-oxazolidin-3-yl)-6-methyl-nicotinic acid methyl ester] was 144 to 145.5 °C. `CCC(Nc1cc(C)nc(Oc2c(C)cc(Cl)cc2C)c1CO)C(C)O` (centres unmarked) [Example 25, 3-[2-(4-Chloro-2,6-dimethyl-phenoxy)-3-hydroxymethyl-6-methyl-pyridin-4-ylamino]-pentan-2ol]: the melting point lay within 180 to 182 °C. The value for `CCC(O)C(CC)Nc1cc(C)nc(Oc2c(C)cc(Cl)cc2C)c1CO` (centres unmarked) [Example 26, 4-[2-(4-Chloro-2,6-dimethyl-phenoxy)-3-hydroxymethyl-6-methyl-pyridin-4-ylamino]-hexan-3-ol] was 145 to 148 °C; that for `C#CC(CC)Nc1cc(C)nc(Oc2c(C)cc(C)cc2C)c1C(=O)O` (centres unmarked) [Example 27, 4-(1-Ethyl-prop-2-ynylamino)-6-methyl-2-(2,4,6-trimethyl-phenoxy)-nicotinic acid] was 131 to 133 °C. To `CCC(CC)Oc1cc(C)nc(Oc2c(C)cc(C)cc2C)c1[N+](=O)[O-]` [Example 60, 4-(1-Ethyl-propoxy)-6-methyl-3-nitro-2-(2,4,6-trimethyl-phenoxy)-pyridine] belongs 106 to 109 °C; to `CCC(CC)Oc1cc(C)nc(Nc2c(C)cc(C)cc2C)c1C(=O)n1ccnc1` [Example 70, [4-(1-Ethyl-propoxy)-6-methyl-2-(2,4,6-trimethyl-phenylamino)-pyridin-3-yl]-imidazol-1-yl-methanone], 120 to 122 °C; to `CCC(CC)Oc1cc(C)nc(Nc2c(C)cc(C)cc2C)c1CC(C(=O)OC)C(=O)OC` [Example 72, 2-[4-(1-Ethyl-propoxy)-6-methyl-2-(2,4,6-trimethyl-phenylamino)-pyridin-3-ylmethyl]-malonic acid dimethyl ester], 96 to 98 °C. The value for `CCC(CC)Oc1cc(C)nc(Nc2c(C)cc(C)cc2C)c1CNC(=O)CCl` [Example 75, 2-Chloro-N-[4-(1-ethyl-propoxy)-6-methyl-2-(2,4,6-trimethyl-phenylamino)-pyridin-3-ylmethyl]-acetamide] was 142 to 144 °C; that for `CCOC(=S)SCc1c(OC(CC)CC)cc(C)nc1Nc1c(C)cc(C)cc1C` [Example 77, Dithiocarbonic acid O-ethyl ester S-[4-(1-ethyl-propoxy)-6-methyl-2-(2,4,6-trimethyl-phenylamino)-pyridin-3-ylmethyl] ester] was 55 to 57 °C. The compound `CCC(CC)Oc1cc(C)nc(Nc2c(C)cc(C)cc2C)c1` [Example 90, [4-(1-Ethyl-propoxy)-6-methyl-pyridin-2-yl]-(2,4,6-trimethyl-phenyl)-amine] showed a melting point of 98 to 100 °C.

For `Cc1cc(C)c(Oc2nc(C)cc(C(O)C(F)(F)F)c2C)c(C)c1` (centres unmarked) [Example 99, 1-[3,6-Dimethyl-2-(2,4,6-trimethyl-phenoxy)-pyridin-4-yl]-2,2,2-trifluoro-ethanol], the melting point was in the range of 134 to 139 °C. To `CCC(CC)Nc1cc(C)nc(Nc2c(C)cc(C)cc2C)c1C(N)=O` [Example 119, 4-(1-Ethyl-propylamino)-6-methyl-2-(2,4,6-trimethyl-phenylamino)-nicotinamide] belongs 204 to 206 °C. To `CCC(CC)Oc1nc(C)nc(Nc2c(C)cc(C)cc2C)c1C(N)=O` [Example 120, 4-(1-Ethyl-propoxy)-2-methyl-6-(2,4,6-trimethyl-phenylamino)-pyrimidine-5-carboxylic acid amide] belongs 174 to 176 °C.

Turning to `CCC(CC)Oc1cc(C)nc(Nc2c(C)cc(C)cc2C)c1NC(=O)CCl` [Example 124, 2-Chloro-N-[4-(1-ethyl-propoxy)-6-methyl-2-(2,4,6-trimethyl-phenylamino)-pyridin-3-yl]-acetamide], the melting point fell in the range of 79 to 82 °C. In turn, `CCC(CC)Nc1cc(C)nc(Nc2c(C)cc(C)cc2C)c1CC(C(=O)OC)C(=O)OC` [Example 129, 2-[4-(1-Ethyl-propylamino)-6-methyl-2-(2,4,6-trimethyl-phenylamino)-pyridin-3-ylmethyl]-malonic acid dimethyl ester] gave a melting point of 136 to 138 °C. The value for `CCC(CC)Nc1cc(C)nc(Oc2c(C)cc(C)cc2C)c1CN` [Example 135, [3-Aminomethyl-6-methyl-2-(2,4,6-trimethyl-phenoxy)-pyridin4-yl]-(1-ethyl-propyl)-amine] was 117 to 119 °C; that for `CCC(CC)Oc1nc(C)nc(Nc2c(C)cc(C)cc2C)c1C(=O)O` [Example 160, 4-(1-Ethyl-propoxy)-2-methyl-6-(2,4,6-trimethyl-phenylamino)-pyrimidine-5-carboxylic acid] was 118 to 120 °C; that for `CCC(CC)Oc1nc(C)nc(Nc2c(C)cc(C)cc2C)c1CO` [Example 161, [4-(1-Ethyl-propoxy)-2-methyl-6-(2,4,6-trimethyl-phenylamino)-pyrimidin-5-yl]-methanol] was 121 to 123 °C. For the compound `CCC(CC)Oc1cc(C)nc2c1[nH]c(=O)n2-c1c(C)cc(C)cc1C` [Example 166, 7-(1-Ethyl-propoxy)-5-methyl-3-(2,4,6-trimethyl-phenyl)-1,3-dihydro-imidazo[4,5-b]pyridin-2-one], the melting point was 184 to 186 °C. To `CCC(CC)Oc1cc(C)nc2c1n(C)c(=O)n2-c1c(C)cc(C)cc1C` [Example 167, 7-(1-Ethyl-propoxy)-1,5-dimethyl-3-(2,4,6-trimethyl-phenyl)-1,3-dihydro-imidazo[4,5-b]pyridin-2-one] belongs 151 to 153 °C; to `CCC(CC)Nc1cc(C)nc2c1nc(N)n2-c1c(C)cc(C)cc1C` [Example 170, N7-(1-Ethyl-propyl)-5-methyl-3-(2,4,6-trimethyl-phenyl)-3H-imidazo[4,5-b]pyridine-2,7-diamine], 158 to 160 °C. Compound `CCC(CC)Nc1cc(C)nc(Oc2c(C)cc(OC)cc2C)c1C(N)=O` [Example 262, 4-(1-Ethyl-propylamino)-2-(4-methoxy-2,6-dimethyl-phenoxy)-6-methyl-nicotinamide] had a melting point of 184 °C. To `CCC(Nc1cc(C)nc(Oc2c(C)cc(OC)cc2C)c1C(=O)NC)C(C)OC` (centres unmarked) [Example 284, 4-(1-Ethyl-2-methoxy-propylamino)-2-(4-methoxy-2,6-dimethyl-phenoxy)-6,N-dimethyl-nicotinamide] belongs 122.6 °C. The value for `CCC(CC)Nc1cc(C)nc(Oc2c(C)cc(C)nc2C)c1C(N)=O` [Example 287, 4-(1-Ethyl-propylamino)-6-methyl-2-(2,4,6-trimethyl-pyridin-3-yloxy)-nicotinamide] was 164.3 °C.

By melting point is commonly meant the temperature, or range, at which the solid turns liquid.
